Measured values: US20120010242A1 (ALKERSTRAAT 30 A, priority 2009, published 2012)
One block for each compound: values may come before it.

Columns and labels:
5-HT2B receptor = 5-HT2B receptor (Homo sapiens, UniProt P41595); assay: pKi for 5HT2B receptor (Table 1); format: binding
5-HT2C receptor = molecular target: T1, 5-HT2C receptor (Homo sapiens, UniProt P28335); assay: pKi for 5HT2C receptor (Table 1); format: binding
T1 sequence (P28335 33-458): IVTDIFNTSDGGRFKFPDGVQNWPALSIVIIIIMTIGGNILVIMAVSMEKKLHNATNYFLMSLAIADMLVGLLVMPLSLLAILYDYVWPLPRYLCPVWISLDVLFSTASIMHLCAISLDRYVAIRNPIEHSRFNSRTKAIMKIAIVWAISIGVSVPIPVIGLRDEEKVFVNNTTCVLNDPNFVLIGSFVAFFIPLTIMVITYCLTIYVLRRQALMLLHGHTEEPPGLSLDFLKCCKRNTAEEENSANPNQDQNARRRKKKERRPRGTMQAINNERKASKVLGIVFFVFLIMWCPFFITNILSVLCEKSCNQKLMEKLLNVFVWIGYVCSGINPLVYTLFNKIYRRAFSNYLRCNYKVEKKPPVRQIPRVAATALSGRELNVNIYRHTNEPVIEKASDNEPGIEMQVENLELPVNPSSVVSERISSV

[1] = molecular target: adrenergic receptor Beta 1 (Homo sapiens, UniProt P08588); assay: pKi for adrenergic receptor Beta1 (Table 1); format: binding
5-HT2A receptor = 5-HT2A receptor (Homo sapiens, UniProt P28223); assay: pKi for 5HT2A receptor (Table 1); format: binding
Chain of 5-HT2A receptor (P28223 whole entry): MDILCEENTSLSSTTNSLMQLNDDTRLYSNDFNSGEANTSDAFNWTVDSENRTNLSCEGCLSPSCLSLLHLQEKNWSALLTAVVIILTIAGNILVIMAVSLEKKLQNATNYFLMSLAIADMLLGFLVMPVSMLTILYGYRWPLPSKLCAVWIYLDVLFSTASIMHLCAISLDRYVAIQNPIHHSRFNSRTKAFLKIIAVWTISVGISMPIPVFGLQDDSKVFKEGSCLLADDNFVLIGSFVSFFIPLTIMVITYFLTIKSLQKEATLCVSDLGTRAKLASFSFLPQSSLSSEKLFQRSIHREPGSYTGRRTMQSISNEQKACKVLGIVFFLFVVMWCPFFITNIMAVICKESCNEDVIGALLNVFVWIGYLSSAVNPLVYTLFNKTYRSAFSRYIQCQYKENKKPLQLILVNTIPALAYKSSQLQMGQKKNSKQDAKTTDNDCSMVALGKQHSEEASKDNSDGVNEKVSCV

[2] = molecular target: adrenergic receptor Alpha 2C (Homo sapiens, UniProt P18825); assay: pKi for adrenergic receptor Alpha2C (Table 1); format: binding
5-HT6 (rat) receptor = 5-HT6 (rat) receptor (Rattus norvegicus, UniProt P31388); assay: pKi for 5HT6 rat receptor (Table 1); format: binding
Chain of 5-HT6 (rat) receptor (P31388 whole entry): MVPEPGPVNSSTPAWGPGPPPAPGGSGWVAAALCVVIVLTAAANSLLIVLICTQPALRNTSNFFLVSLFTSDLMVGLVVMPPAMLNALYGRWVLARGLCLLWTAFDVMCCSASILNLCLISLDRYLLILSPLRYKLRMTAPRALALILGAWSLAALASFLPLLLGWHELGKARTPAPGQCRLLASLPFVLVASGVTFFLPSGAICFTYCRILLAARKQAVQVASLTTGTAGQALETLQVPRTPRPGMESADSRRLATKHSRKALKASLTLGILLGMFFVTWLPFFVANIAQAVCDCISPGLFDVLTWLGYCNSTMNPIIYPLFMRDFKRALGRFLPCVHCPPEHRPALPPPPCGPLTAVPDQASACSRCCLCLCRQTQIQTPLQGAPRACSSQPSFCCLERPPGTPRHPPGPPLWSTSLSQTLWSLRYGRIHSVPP

5-HT1A receptor = molecular target: T2, 5-HT1A receptor (Homo sapiens, UniProt P08908); assay: pKi for 5HT1A receptor (Table 1); format: binding
T2 sequence (P08908 1-422): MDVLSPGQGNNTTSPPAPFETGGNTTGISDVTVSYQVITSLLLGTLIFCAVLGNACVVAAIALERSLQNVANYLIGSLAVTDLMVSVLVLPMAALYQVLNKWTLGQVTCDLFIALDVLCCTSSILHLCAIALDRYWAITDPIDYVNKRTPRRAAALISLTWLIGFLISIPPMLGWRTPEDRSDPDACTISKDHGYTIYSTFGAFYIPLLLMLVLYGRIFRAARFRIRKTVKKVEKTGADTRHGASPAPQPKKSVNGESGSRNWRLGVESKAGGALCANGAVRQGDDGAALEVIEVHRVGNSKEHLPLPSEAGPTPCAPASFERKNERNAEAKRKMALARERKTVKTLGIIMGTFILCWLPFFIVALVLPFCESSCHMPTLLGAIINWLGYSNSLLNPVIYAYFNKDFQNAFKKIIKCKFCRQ

D2 dopamine receptor = D2 dopamine receptor (Homo sapiens, UniProt P14416); assay: pKi for dopamine receptor D2 (Table 1); format: binding
Chain of D2 dopamine receptor (P14416 whole entry): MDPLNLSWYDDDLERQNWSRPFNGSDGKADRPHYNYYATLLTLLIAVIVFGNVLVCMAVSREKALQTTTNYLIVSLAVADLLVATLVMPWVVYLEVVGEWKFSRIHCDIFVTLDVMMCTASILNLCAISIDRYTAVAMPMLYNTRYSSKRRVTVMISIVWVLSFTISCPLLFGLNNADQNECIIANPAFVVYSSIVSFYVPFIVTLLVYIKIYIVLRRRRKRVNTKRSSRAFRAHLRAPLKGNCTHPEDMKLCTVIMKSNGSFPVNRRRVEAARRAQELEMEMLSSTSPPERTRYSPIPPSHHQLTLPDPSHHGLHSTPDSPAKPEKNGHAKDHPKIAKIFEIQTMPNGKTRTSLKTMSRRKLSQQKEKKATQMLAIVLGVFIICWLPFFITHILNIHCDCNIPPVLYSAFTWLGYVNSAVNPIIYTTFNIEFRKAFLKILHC

[3] = molecular target: T3, adrenergic receptor Alpha 1A (Homo sapiens, UniProt P35348); assay: pKi for adrenergic receptor Alpha1A (Table 1); format: binding
T3 sequence (P35348 1-466): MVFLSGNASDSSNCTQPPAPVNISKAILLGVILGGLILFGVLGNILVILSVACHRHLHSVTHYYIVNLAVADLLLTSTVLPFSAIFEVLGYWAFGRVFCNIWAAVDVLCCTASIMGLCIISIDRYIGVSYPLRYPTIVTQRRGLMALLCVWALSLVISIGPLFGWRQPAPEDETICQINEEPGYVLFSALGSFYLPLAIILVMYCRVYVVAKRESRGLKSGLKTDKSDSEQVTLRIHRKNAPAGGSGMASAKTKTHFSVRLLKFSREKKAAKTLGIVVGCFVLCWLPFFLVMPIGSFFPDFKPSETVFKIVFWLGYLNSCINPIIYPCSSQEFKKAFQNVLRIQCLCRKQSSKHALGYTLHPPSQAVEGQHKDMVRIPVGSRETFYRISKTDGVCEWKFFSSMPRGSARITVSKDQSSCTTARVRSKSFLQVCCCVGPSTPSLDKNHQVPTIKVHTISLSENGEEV

D4 receptor = molecular target: T4, D4 receptor (Homo sapiens, UniProt P21917); assay: pKi for dopamine receptor D4 (Table 1); format: binding
T4 sequence (P21917 1-419): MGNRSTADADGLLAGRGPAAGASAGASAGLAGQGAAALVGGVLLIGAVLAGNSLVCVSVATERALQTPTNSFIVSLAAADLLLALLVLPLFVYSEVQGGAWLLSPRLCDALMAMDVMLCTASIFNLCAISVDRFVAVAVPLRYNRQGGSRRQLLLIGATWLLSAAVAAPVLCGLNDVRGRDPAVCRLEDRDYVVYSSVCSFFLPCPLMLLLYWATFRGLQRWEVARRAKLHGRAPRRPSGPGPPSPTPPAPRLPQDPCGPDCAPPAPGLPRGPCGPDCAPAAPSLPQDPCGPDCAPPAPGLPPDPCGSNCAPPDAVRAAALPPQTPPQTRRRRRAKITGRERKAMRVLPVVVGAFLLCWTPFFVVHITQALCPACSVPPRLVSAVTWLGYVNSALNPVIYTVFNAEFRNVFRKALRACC

[4] = molecular target: adrenergic receptor Alpha 2B (Homo sapiens, UniProt P18089); assay: pKi for adrenergic receptor Alpha2B (Table 1); format: binding
Chain of adrenergic receptor Alpha 2B (P18089 whole entry): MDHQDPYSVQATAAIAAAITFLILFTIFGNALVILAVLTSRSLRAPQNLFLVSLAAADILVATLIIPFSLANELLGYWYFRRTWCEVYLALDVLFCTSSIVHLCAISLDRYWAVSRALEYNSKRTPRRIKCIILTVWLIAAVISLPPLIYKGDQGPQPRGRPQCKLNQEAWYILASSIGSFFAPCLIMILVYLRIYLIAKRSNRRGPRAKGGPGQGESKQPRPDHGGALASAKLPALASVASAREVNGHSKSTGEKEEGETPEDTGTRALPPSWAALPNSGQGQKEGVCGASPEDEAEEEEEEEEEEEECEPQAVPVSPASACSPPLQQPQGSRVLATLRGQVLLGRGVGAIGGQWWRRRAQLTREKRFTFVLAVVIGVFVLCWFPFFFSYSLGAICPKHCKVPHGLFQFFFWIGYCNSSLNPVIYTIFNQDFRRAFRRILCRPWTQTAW

D3 dopamine receptor = D3 dopamine receptor (Homo sapiens, UniProt P35462); assay: pKi for dopamine receptor D3 (Table 1); format: binding
Chain of D3 dopamine receptor (P35462 whole entry): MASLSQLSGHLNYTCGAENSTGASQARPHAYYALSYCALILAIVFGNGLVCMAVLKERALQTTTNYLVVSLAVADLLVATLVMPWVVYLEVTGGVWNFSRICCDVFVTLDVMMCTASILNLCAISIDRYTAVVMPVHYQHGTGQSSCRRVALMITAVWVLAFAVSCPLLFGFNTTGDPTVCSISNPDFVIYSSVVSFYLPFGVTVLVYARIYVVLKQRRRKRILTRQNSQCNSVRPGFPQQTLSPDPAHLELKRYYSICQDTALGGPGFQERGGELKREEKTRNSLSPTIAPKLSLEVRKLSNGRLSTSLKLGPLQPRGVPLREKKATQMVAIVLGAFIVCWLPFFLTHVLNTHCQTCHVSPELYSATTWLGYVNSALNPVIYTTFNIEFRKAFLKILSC

5-HT7 (rat) receptor = 5-HT7 (rat) receptor (Rattus norvegicus, UniProt P32305); assay: pKi for 5HT7 rat receptor (Table 1); format: binding
Chain of 5-HT7 (rat) receptor (P32305 whole entry): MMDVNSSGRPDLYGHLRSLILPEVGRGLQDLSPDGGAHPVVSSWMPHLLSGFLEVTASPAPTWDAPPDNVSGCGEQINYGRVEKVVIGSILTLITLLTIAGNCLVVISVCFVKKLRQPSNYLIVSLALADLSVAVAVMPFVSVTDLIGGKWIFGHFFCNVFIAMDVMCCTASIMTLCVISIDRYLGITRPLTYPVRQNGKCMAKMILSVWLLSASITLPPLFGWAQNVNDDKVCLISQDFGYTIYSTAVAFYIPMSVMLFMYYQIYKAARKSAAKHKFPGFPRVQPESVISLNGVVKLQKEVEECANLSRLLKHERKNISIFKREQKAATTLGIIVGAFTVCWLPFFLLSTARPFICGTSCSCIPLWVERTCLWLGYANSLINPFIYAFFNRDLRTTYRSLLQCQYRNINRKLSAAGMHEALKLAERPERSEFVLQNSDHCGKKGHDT

[5] = molecular target: T5, adrenergic receptor Alpha 2A (Homo sapiens, UniProt P08913); assay: pKi for adrenergic receptor Alpha2A (Table 1); format: binding
T5 sequence (P08913 1-465): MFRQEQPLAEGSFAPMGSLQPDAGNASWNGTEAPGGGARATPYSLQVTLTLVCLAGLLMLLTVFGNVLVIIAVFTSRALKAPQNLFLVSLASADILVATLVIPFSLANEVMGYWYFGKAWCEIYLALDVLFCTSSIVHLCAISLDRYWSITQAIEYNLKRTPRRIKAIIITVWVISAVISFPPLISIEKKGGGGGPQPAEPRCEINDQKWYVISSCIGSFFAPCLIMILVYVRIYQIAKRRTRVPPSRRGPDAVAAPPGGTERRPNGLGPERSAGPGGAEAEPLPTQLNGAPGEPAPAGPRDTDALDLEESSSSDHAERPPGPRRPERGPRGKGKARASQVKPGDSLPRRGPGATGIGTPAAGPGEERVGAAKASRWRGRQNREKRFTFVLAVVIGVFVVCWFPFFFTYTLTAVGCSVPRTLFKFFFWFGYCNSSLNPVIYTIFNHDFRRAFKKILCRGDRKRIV

[6] = molecular target: adrenergic receptor Beta 2 (Homo sapiens, UniProt P07550); assay: pKi for adrenergic receptor Beta2 (Table 1); format: binding
Chain of adrenergic receptor Beta 2 (P07550 whole entry): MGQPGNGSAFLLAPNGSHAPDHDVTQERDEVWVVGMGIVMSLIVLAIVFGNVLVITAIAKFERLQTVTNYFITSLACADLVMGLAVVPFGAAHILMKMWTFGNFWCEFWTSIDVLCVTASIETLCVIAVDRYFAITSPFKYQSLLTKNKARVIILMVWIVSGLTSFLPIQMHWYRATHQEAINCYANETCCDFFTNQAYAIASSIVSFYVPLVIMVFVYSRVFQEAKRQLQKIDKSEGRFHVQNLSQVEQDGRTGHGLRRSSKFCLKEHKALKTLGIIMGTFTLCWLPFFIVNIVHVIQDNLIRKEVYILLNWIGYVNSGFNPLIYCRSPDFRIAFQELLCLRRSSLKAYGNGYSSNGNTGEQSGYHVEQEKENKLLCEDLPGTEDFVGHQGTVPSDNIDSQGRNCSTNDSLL

5-HT1E receptor = 5-HT1E receptor (Homo sapiens, UniProt P28566); assay: pKi for 5HT1E receptor (Table 1); format: binding
D1 dopamine receptor = D1 dopamine receptor (Homo sapiens, UniProt P21728); assay: pKi for dopamine receptor D1 (Table 1); format: binding
Chain of D1 dopamine receptor (P21728 whole entry): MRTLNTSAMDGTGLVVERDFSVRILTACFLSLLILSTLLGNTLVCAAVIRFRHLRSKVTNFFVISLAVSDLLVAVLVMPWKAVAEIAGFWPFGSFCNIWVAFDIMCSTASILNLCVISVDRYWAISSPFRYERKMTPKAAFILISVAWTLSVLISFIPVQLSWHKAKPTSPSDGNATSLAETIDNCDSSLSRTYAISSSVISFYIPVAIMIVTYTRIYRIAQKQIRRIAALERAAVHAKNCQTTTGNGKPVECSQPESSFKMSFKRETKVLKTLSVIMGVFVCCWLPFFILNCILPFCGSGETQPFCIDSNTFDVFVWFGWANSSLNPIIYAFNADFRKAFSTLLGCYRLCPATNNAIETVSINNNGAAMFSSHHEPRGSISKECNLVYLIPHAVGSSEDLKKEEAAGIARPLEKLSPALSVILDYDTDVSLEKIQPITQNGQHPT

5-HT1D receptor = 5-HT1D receptor (Homo sapiens, UniProt P28221); assay: pKi for 5HT1D receptor (Table 1); format: binding
Chain of 5-HT1D receptor (P28221 whole entry): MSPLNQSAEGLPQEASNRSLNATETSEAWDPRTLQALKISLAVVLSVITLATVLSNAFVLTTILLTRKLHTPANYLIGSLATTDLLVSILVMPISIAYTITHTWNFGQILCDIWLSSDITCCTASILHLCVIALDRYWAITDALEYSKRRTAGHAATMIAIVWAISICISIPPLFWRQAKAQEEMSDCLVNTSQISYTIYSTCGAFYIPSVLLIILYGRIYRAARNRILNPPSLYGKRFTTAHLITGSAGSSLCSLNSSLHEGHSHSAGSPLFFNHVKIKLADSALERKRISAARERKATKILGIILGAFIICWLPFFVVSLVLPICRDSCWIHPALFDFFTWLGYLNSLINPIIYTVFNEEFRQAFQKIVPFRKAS

5-HT1B receptor = 5-HT1B receptor (Homo sapiens, UniProt P28222); assay: pKi for 5HT1B receptor (Table 1); format: binding
Chain of 5-HT1B receptor (P28222 whole entry): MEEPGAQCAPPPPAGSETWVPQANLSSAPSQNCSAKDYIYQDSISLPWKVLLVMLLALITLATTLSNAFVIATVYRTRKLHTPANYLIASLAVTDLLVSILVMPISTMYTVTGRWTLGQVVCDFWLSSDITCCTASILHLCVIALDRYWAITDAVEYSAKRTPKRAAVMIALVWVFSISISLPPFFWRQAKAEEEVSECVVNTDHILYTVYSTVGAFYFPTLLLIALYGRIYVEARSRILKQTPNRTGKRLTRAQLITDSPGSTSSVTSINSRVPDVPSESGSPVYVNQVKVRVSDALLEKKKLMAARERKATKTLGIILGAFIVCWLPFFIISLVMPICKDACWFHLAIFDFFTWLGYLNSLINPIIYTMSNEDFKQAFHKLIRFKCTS

[7] = tested on: patients with treatment refractory major depression; assay: Semi-naturalistic open label study of low dose pipamperone in treatment refractory major depression; format: in vivo, human
other dopamine receptors = assay: pKi towards other dopamine receptors; format: binding; conditions: dopamine receptors other than D4
other 5HT receptors = assay: pKi towards other 5HT receptors; format: binding; conditions: 5HT receptors other than 5-HT2A
patients = conditions: clinical trials; cited from earlier work

Chain of 5-HT2B receptor (P41595 whole entry): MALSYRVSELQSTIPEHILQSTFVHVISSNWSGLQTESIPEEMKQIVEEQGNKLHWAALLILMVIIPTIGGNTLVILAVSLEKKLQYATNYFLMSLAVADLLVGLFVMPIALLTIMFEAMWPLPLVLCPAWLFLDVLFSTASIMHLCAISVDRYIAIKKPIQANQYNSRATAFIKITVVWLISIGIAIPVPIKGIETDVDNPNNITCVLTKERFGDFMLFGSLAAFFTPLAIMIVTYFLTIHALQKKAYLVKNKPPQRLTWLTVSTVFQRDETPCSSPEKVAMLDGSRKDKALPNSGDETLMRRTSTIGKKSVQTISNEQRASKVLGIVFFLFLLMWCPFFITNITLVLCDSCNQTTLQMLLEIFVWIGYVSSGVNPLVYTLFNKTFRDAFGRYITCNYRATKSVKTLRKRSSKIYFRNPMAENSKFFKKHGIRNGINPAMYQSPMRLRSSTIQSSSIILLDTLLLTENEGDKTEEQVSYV

Structure (SMILES): OCCOCCN1CCN(C2=Nc3ccccc3Sc3ccccc32)CC1 [Seroquel]
Ki (5-HT1E receptor): > 1 µM

Structure (SMILES): Fc1cccc2c1O[C@H]1CNC[C@@H]1O2 [Fluparoxan]
Ki (5-HT2A receptor): > 1 µM

Structure (SMILES): CN(C)CCOC1=Cc2ccccc2Sc2ccc(Cl)cc21 [Zotepine]
Ki (D4 receptor): 0.01 to 0.1 µM

Structure (SMILES): NC(=O)C1(N2CCCCC2)CCN(CCCC(=O)c2ccc(F)cc2)CC1 [Pipamperone, 1′-[3-(p-Fluorobenzoyl)propyl]-[1,4′-bipiperidine]-4′-carboxamide]
tolerability in patients with depression ([7]; 1-20 mg/day PO, 8 weeks): generally well tolerated
anti-depressant effect on treatment refractory patients ([7]; 1-20 mg/day PO, 8 weeks, refractory towards SSRIs): apparent
sedative effects ([7]; doses used in the study (1-20 mg/day), observed at higher doses): lacking
anti-depressant effect ([7]; extremely unconventional low dose, 1-20 mg/day PO, 8 weeks, open label): apparent
pKi towards other dopamine receptors (other dopamine receptors): less than 8
Ki (D4 receptor): ≤ 0.01 µM
pKi towards other 5HT receptors (other 5HT receptors): less than 8

Structure (SMILES): CN(C)CCCC1(c2ccc(F)cc2)OCc2cc(C#N)ccc21 (centres unmarked) [citalopram]
patients reporting one or more of the listed side effects (patients): over 10%

Structure (SMILES): OC1(c2ccc(Cl)cc2)CCN(Cc2c[nH]c3ccccc23)CC1 [L741626]
pKi 5HT2B (5-HT2B receptor): 6-7
pKi 5HT1D (5-HT1D receptor): <6
pKi D4 (D4 receptor): 6-7
pKi D3 (D3 dopamine receptor): 7-8
pKi 5HT1B (5-HT1B receptor): <6
pKi Alpha2A [5]: <6

Structure (SMILES): CCNC(=O)N1CCN(CCCC(c2ccc(F)cc2)c2ccc(F)cc2)CC1 [Amperozide]
Ki (D4 receptor): > 1 µM

Structure (SMILES): CCN1CCC[C@H]1CNC(=O)c1c(O)c(Cl)cc(Cl)c1OC (racemic) [Raciopride]
pKi 5HT2C (5-HT2C receptor): <6
pKi 5HT2A (5-HT2A receptor): 6-7
pKi D1 (D1 dopamine receptor): <6
pKi 5HT1A (5-HT1A receptor): <6
pKi Alpha1A [3]: <6
pKi D4 (D4 receptor): <6
pKi D3 (D3 dopamine receptor): 8-9
pKi Alpha2A [5]: <6

Further lines, results first:

pKi 5HT2B (5-HT2B receptor): 8-9
pKi 5HT2C (5-HT2C receptor): 7-8
pKi Beta1 [1]: <6
pKi 5HT2A (5-HT2A receptor): >9
pKi Alpha2C [2]: 6-7
pKi 5HT6rat (5-HT6 (rat) receptor): 7-8
pKi 5HT1A (5-HT1A receptor): 8-9
pKi D2 (D2 dopamine receptor): 7-8
pKi Alpha1A [3]: 8-9
pKi D4 (D4 receptor): 7-8
pKi Alpha2B [4]: 7-8
pKi D3 (D3 dopamine receptor): 7-8
pKi 5HT7rat (5-HT7 (rat) receptor): 7-8
pKi Alpha2A [5]: 6-7
pKi Beta2 [6]: <6
Structure (SMILES): O=C(CC1CCN(CCOc2cccc3c2OCCO3)C1)c1ccc(F)cc1 (centres unmarked) [S16924]

pKi 5HT2C (5-HT2C receptor): 6-7
pKi 5HT2A (5-HT2A receptor): 8-9
pKi D1 (D1 dopamine receptor): 7-8
pKi 5HT1A (5-HT1A receptor): 7-8
pKi D2 (D2 dopamine receptor): 7-8
pKi Alpha1A [3]: >9
pKi D4 (D4 receptor): 8-9
pKi D3 (D3 dopamine receptor): 6-7
pKi Alpha2A [5]: 6-7
Structure (SMILES): O=C1N(CCN2CCC(c3noc4cc(F)ccc34)CC2)CCN1c1ccccc1 [S18327]

pKi 5HT2B (5-HT2B receptor): 6-7
pKi 5HT2C (5-HT2C receptor): 7-8
pKi 5HT2A (5-HT2A receptor): 6-7
pKi 5HT1D (5-HT1D receptor): 6-7
pKi D1 (D1 dopamine receptor): 6-7
pKi 5HT1A (5-HT1A receptor): <6
pKi D2 (D2 dopamine receptor): 7-8
pKi Alpha1A [3]: 6-7
pKi D4 (D4 receptor): <6
pKi D3 (D3 dopamine receptor): >9
pKi 5HT1B (5-HT1B receptor): 6-7
pKi Alpha2A [5]: <6
Structure (SMILES): N#Cc1ccc2c(c1)[C@H]1CN(CCCCNC(=O)c3ccc(-c4ccccc4)cc3)C[C@@H]1CO2 [S33084]
